Patent publication US20260199493A1 (priority 2021, published 2026)

How the values were obtained:
[1] = test system: MBNL1 downstream genes (Atp2a1, Nfix, Clcn1, Mbnl1); details: 1 week
Source text: (§1) 9 week old HSA-LR mice and control FVB mice were employed in a 1 week post single dose range study. The HSA-LR mice were divided into 5 groups. […] Tissues were harvested after 7 days. RT-PCR was used to determine alternative splicing for specific genes (Atp2a1, Clcn1, Nfix, MBNL1). LC-mass was used to determine drug level in Quad, gastro, TA, Triceps, diaphragm, heart, kidney, liver, Brain, plasma. RNA-seq was used to determine the transcription level change between a treated disease model, an untreated disease model and wild-type. Fluorescence imaging was used to determine RNA Foci reduction after treatment with the EEV-oligo compound. […] Q-PCR was used to determine the reduction of mRNA level of actin-HSA after treatment.
(§2) RT-PCR was used to determine alternative splicing for specific genes (Atp2a1, Clcn1, Nfix, MBNL1). LC-mass was used to determine drug level in Quad, gastro, TA, Triceps, diaphragm, heart, kidney, liver, Brain, plasma. RNA-seq was used to determine the transcription level change between a treated disease model, an untreated disease model and wild-type. Fluorescence imaging was used to determine RNA Foci reduction after treatment with the EEV-oligo compound. Myotonia reduction was recorded 7 days after treatment with the EEV-oligo compound. Q-PCR was used to determine the reduction of mRNA level of actin-HSA after treatment.

HSA mRNA = details: HSA-LR mice
Source text: as §2, with “[…] The HSA-LR mice were divided into 5 groups. […] […] RT-PCR” for “RT-PCR”, “Myotonia reduction was recorded 7 days after treatment with the EEV-oligo compound.” left out
as §2

nuclear foci (CUG foci) = details: DM1 patient-derived muscle cells, 30 μM, 4 days of differentiation
Protocol: (§3) Patient myoblasts were treated with 30 micromolar of EEV-oligo throughout 4 days of differentiation. Splicing correction was assessed by one-step RT-PCR. HCR—FISH and sequestered MBNL1 protein detection assays were used to detect RNA foci.
(§4) Patient myoblasts harbor 2600 CTG repeats within the DMPK 3′UTR. […] Splicing correction was assessed by one-step RT-PCR and Labchip analysis. Plotted mean f SD; n=4 HCR—FISH assay for CUG foci detection in place.

[2] = test system: DM1 patient-derived muscle cells; details: 30 μM, 4 days of differentiation
Protocol: as §3, §4

CUG foci = details: HSA-LR mouse, 1 week
Source text: as §1

[3] = Source text: as §1
IRF-5 gene exon skipping = details: RAW 264.7 cells, 5 μM
Protocol: Briefly, 150K cells/well were seeded in a 24 well plate in 0.5 ml DMEM. […] Following the second incubation, the RNA was harvested and RT-PCR was done using primers that detect exon 5 skipping in the IRF-5 gene.

IRF5 protein = details: for efficacy relative to EEV-PMO-IRF5-1 / IRF-5 protein expression compared to cells stimulated with R848 / IRF-5 protein reduction: RAW 264.7 cells; for efficacy relative to EEV-PMO-IRF5-1 / relative potency compared to EEV-PMO-IRF5-1 (IRF5 protein expression): R848 stimulation; for efficacy relative to EEV-PMO-IRF5-1: on average; for IRF-5 protein expression compared to cells stimulated with R848: all tested concentrations; for IRF-5 protein reduction: concentrations as low as 2 μM, vs cells stimulated with R848; for relative potency compared to EEV-PMO-IRF5-1 (IRF5 protein expression): mouse macrophage cells, Western Blot
[4] = test system: exon 44 of dystrophin mRNA; experiment: Exon 44 skipping by RT-PCR in NHP; type: in vivo, cynomolgus monkeys
Protocol: Each testing article was formulated in saline at 4 mg/mL. Bloods and urine were taken at times indicated in Table 18 for further PK analysis. Biopsy at 2 days post injection was performed on biceps. Animals were sacrificed at day 7 post injection and skeletal muscles (quadriceps, diaphragm, biceps, deltoid, tibialis anterior (TiA), smooth muscles (esophagus, aorta, colon) and cardiac muscles (ventricle, atrium) were taken, pulverized, and stored at −80° C. for evaluation of exon skipping and biodistribution in tissues.
(§5) Exon Skipping Analysis by RT-PCR: hDMD mice and NHP express full-length human dystrophin mRNA. The delivery of AC can alter the splicing and result in a shortened dystrophin mRNA after exon 44 skipping. The tissues were homogenized using 1 mL of RLT lysis buffer (Qiagen, Cat #79216). The detection of splicing correction process was measured by RT-PCR where extracted RNAs from tissues were first reverse-transcribed into cDNA and further analyzed by one step RT-PCR using the following primer set: forward primer 5′-[…]-3′ (SEQ ID NO: 262) and reverse primer 5′-[…]-3′ (SEQ ID NO: 263). […] Quantification of the relative intensity of the bands corresponding to skipped and unskipped transcripts were performed to assess AC-induced exon-44-skipping efficacy. The degree (percentage) of splicing correction detected by RT-PCR was calculated using the following equation: % correction=(intensity of 493 bp fragment band)/(intensity of 493 bp fragment band+intensity of 641 bp fragment band).
Approximately 20 hours post dose the animal was (bright, alert, and responsive such that the animal was phenotypically “normal”) (BAR) and had zero biscuits left in the cage and was observed eating produce.

[5] = test system: human dystrophin (DMD) exon 44; experiment: Exon 44 skipping in DMD patient-derived muscle cells; type: cell-based; details: dose-dependent, maximum observed
Protocol: After 24 hours, the compound-containing growth medium was replaced with DMEM/2% horse serum and incubated for 5 days to promote myoblast fusion and differentiation into myotubes. Cells were washed and harvested for RNA extraction to assess exon 44 skipping, or in RIPA buffer containing protease inhibitors for protein extraction and Simple Western analysis of dystrophin protein restoration. Dystrophin levels were normalized to HSP90 and expressed relative to untreated healthy samples. Data are expressed as mean±SD, n=3-4. Untreated DMDΔ45 patient derived cells express ~10% spontaneous DMD exon 44 skipping and ~4% dystrophin protein at baseline.

[6] = test system: exon 44 of human dystrophin mRNA; experiment: Exon 44 skipping by RT-PCR in hDMD mice; type: in vivo
Protocol: The hemizygous mice were further genotyped at Transnetyx. All groups were dosed 5 mL/kg per animal by intravenous (iv) injection and sacrificed after 5 days post injection. All animals were euthanized by CO2 asphyxiation followed by terminal blood collection via cardiac puncture. Maximum obtainable volume of whole blood was collected into lithium heparin tubes and processed to plasma. A portion of plasma was analyzed for clinical chemistries by the Testing Facility (IDEXX) and the rest stored frozen at nominally −70° C. […] Animals were age matched and assigned into eight (8) treatment groups according to Table 15. […] All animals survived until their scheduled euthanasia time. Tissues were collected per protocol. The amount of AC and a cCPP-AC in various tissue samples was quantified by LC-MS. Exon skipping in different tissues were analyzed by RT-PCR and the quantification of exon 44 correction.
as §5

GYS1 = details: GAA knockout mice, single IV dose, one-week post-injection
[7] = test system: Human Primary Renal Proximal Tubular Epithelial Cells (RPTECs); details: 24 hours
[8] = in vivo
Source text: as §1, §2

[9] = HSA-LR mice, 15, 30, 60, 90 mpk IV

Ac-PKKKRKV-AEEA-K(cyclo[FGFGRGRQ])-PEG12-OH [EEV-PMO-DM1-3]
correction of MBNL1 downstream genes, gastrocnemius [1, 9]: dose dependent correction | correction of MBNL1 downstream genes, quadriceps [1, 9]: dose dependent correction | correction of MBNL1 downstream genes, tibialis anterior [1, 9]: dose dependent correction | correction of MBNL1 downstream genes, triceps [1, 9]: dose dependent correction | mis-splicing in gastrocnemius, triceps, tibialis anterior and quadricep ([1]; HSA-LR mice, 60 mpk oligo, 80 mpk whole drug): fully correct mis-splicing | HSA mRNA knockdown (HSA mRNA; 80 mpk IV, 1-week and 4-week post-injection): HSA mRNA knockdown trend | HSA mRNA knockdown in skeletal muscles (HSA mRNA; quadriceps, gastrocnemius, triceps, tibialis anterior, 1 week): 50-70% | nuclear foci (nuclear foci (CUG foci)): reduction in nuclear foci | biomarker splicing correction [2]: significant biomarker splicing correction | CUG foci in TA muscle (CUG foci): reduces CUG foci | myotonia ([3]; HSA-LR mice, 15, 30, 60 and 90 mpk, 7 days): dose dependent myotonia reduction | hindlimb myotonia ([3]; HSA-LR mice, single dose 90 mg/kg, 1 week): did not exhibit obvious signs of hindlimb myotonia after induction

Ac-PKKKRKV-AEEA-K(cyclo[FGFGRRRQ])-PEG12-OH [EEV-PMO-IRF5-3]
exon skipping compared to EEV-PMO-IRF5-1 (IRF-5 gene exon skipping): higher exon skipping | efficacy relative to EEV-PMO-IRF5-1 (IRF5 protein): 5 fold | IRF-5 protein expression compared to cells stimulated with R848 (IRF5 protein): significant reduction in IRF-5 protein expression | IRF-5 protein reduction (IRF5 protein): about 80% | relative potency compared to EEV-PMO-IRF5-1 (IRF5 protein expression) (IRF5 protein): significant improvement in relative potency

Ac-PKKKRKV-AEEA-K(cyclo[FGFRRRRQ])-PEG12-OH [EEV-PMO-IRF5-4]
exon skipping compared to EEV-PMO-IRF5-1 (IRF-5 gene exon skipping): higher exon skipping | efficacy relative to EEV-PMO-IRF5-1 (IRF5 protein): 5 fold | IRF-5 protein expression compared to cells stimulated with R848 (IRF5 protein): significant reduction in IRF-5 protein expression | IRF-5 protein reduction (IRF5 protein): about 80% | relative potency compared to EEV-PMO-IRF5-1 (IRF5 protein expression) (IRF5 protein): significant improvement in relative potency

Ac-PKKKRKV-AEEA-K(cyclo[FfΦGrGrQ])-PEG12-OH [EEV-PMO-IRF5-2]
exon skipping compared to EEV-PMO-IRF5-1 (IRF-5 gene exon skipping): higher exon skipping | efficacy relative to EEV-PMO-IRF5-1 (IRF5 protein): 5 fold | IRF-5 protein expression compared to cells stimulated with R848 (IRF5 protein): significant reduction in IRF-5 protein expression | IRF-5 protein reduction (IRF5 protein): about 80% | relative potency compared to EEV-PMO-IRF5-1 (IRF5 protein expression) (IRF5 protein): significant improvement in relative potency

Ac-PKKKRKV-AEEA-Lys-(cyclo[FGFGRGRQ])-PEG12-OH [EEV-PMO-DMD44-1]
exon 44 skipping across different muscle groups ([4]; 30 mg/kg, 1 hour IV infusion, 7 days): robust exon 44 skipping | exon skipping in all skeletal muscles ([4]; 40 mpk IV, 7-d post injection): more than 78% | exon skipping, atrium ([4]; 40 mpk IV, 7-d post injection): 23.4% | exon skipping, diaphragm ([4]; 40 mpk IV, 7-d post injection): 98.4% | exon skipping, esophagus ([4]; 40 mpk IV, 7-d post injection): 57.1% | exon skipping, ventricle ([4]; 40 mpk IV, 7-d post injection): 31.9% | exon 44 skipping [5]: up to 100% | exon skipping ([6]; hDMD mice, 10 mpk IV, 5 days, Diaphragm): 6% | exon skipping ([6]; hDMD mice, 10 mpk IV, 5 days, TiA): 12% | exon skipping ([6]; hDMD mice, 10 mpk IV, 5 days, Triceps): 6% | exon skipping ([6]; hDMD mice, 10 mpk IV, 5 days, heart): 0% | exon skipping ([6]; hDMD mice, 20 mpk IV, 5 days, Diaphragm): 33% | exon skipping ([6]; hDMD mice, 20 mpk IV, 5 days, TiA): 36% | exon skipping ([6]; hDMD mice, 20 mpk IV, 5 days, Triceps): 22 | exon skipping ([6]; hDMD mice, 20 mpk IV, 5 days, heart): 0% | exon skipping ([6]; hDMD mice, 40 mpk IV, 5 days, Diaphragm): 82% | exon skipping ([6]; hDMD mice, 40 mpk IV, 5 days, TiA): 99% | exon skipping ([6]; hDMD mice, 40 mpk IV, 5 days, Triceps): 94% | exon skipping ([6]; hDMD mice, 40 mpk IV, 5 days, heart): 20% | exon skipping ([6]; hDMD mice, 80 mpk IV, 5 days, Diaphragm): 98% | exon skipping ([6]; hDMD mice, 80 mpk IV, 5 days, TiA): 99% | exon skipping ([6]; hDMD mice, 80 mpk IV, 5 days, Triceps): 97% | exon skipping ([6]; hDMD mice, 80 mpk IV, 5 days, heart): 79% | minimum efficacious dose in the heart ([6]; hDMD mice, IV, 5 days): 40 mpk | exon skipping ([6]; mouse, in vivo): up to 100%

Ac-PKKKRKV-PEG2-K(cyclo[Ff-Φ-Cit-r-Cit-rQ1)-PEG12-K(N3)-NH2 [EEV-PMO-GYS1-1]
GYS1 expression in the diaphragm and cardiac muscle (GYS1): significant knockdown

Ac-PKKKRKV-PEG2-K(cyclo[Ff-Φ-GrGrQ])-PEG2-K(N3)-NH2 [EEV-PMO-GYS1-2]
GYS1 expression in the diaphragm and cardiac muscle (GYS1): significant knockdown

CAGCAGCAGCAGCAGCAGCAG [PMO-DM1]
toxicity (viability): no toxicity at highest concentration tested [7]: > 817 µM | metabolite of EEV-PMO-DM1-3 [8]: major metabolite detected in vivo
